From PMC10675077, “Antimicrobial Properties of New Polyamines Conjugated with Oxygen-Containing Aromatic Functional Groups” (Molecules, 2023) come the findings set out here.

The MIC is the least concentration at which growth counts as inhibited.

The test system of assay [1] is E. coli JM101. The experiment in a line: Minimal bactericidal concentration, E. coli. The settings on record: overnight incubation, plating on LB, bacteriostatic if growth at 4 times the MIC; for MBC: Escherichia coli, JM101. Type of assay: cell-based, Escherichia coli. On the procedure:
(§1) Once the MIC was known, the samples were prepared as described in the previous section with polyamine concentrations corresponding to the MIC and half, double, and four times its value. After overnight incubation with the microorganisms, 30 μL of a ten-fold dilution of each one was spread in LB (in the case of bacterial strains) or SC-ura (for yeast strains) plates. They were incubated for 20 h at 37 °C (bacteria) or 48 h at 30 °C (yeasts), and the level of growth was determined. […] Experiments were carried out at least three times.

In assay [2] the test system is BY4741/YEplac195. The experiment in a line: Checkerboard titration synergy, BY4741/YEplac195. To be noted: synergistic when FICI ≤0.5. Type of assay: cell-based, Saccharomyces cerevisiae. The protocol: The combined antimicrobial activity of the test compounds with the antibacterial or antifungal control agents was performed under the same conditions used for the MIC determination and following the procedures described by Carton Herrán, Reis de Sá et al. and Zharkova et al.. For each experiment, 16 samples (4 rows × 4 columns) in a total volume of 0.5 mL were prepared in tubes using an array of combinations between the MIC value and 0 μg/mL of the compound to be tested in each row, and between the MIC value and 0 μg/mL of the reference drug in each column. In this way, a variety of mixtures with different concentrations of them alone or in combination was obtained. Briefly, 0.5 mL of a microorganism culture was added to each one of the samples, and after incubation for 24 h with shaking at the appropriate temperature (37 °C or 30 °C), the tubs were visually inspected, and the OD600 was measured. From this information, the fractional inhibitory concentration index (FICI) was calculated according to the formula FIC index = ([A]/[CMI A]) + ([B]/[CMI B]), where [A] and [B] are respective concentrations of tested polyamine and reference drug in their combination effectively inhibiting the growth of bacteria or yeast, and [MIC A] and [MIC B] are the individual MICs of the tested polyamine and reference drug when they are used alone. An interaction is considered synergistic when the FICI value is ≤0.5 [41, 42].
To confirm the data obtained in the checkerboard assay, 30 μL of a ten-fold dilution of the tubes containing concentrations of half of the MIC of each one of the compounds alone (polyamine to be tested and reference drug) and one fourth of the MIC of each one in combination were also spread in LB or SC-ura plates (according to the microorganism considered in each case) and incubated at 37 °C or 30 °C. The visualisation of these plates was performed after 24 or 48 h, respectively. All these experiments were carried out in triplicate.

Assay [3] concerns S. aureus BHI. The experiment in a line: Minimal bactericidal concentration, S. aureus. To be noted: overnight incubation, plating on LB; for MBC: Staphylococcus aureus. Type of assay: cell-based, Staphylococcus aureus. On the procedure:
as §1

In assay [4] the test system is Staphylococcus aureus BHI. The experiment in a line: MIC, microdilution in culture medium, S. aureus. To be noted: 20 h, 37 °C, average of at least three experiments; for MIC: Staphylococcus aureus, read-out: MIC, Bacteria, S. aureus BHI. Type of assay: cell-based. The text has this: (§2) The microorganisms used for the susceptibility tests were the bacteria Escherichia coli JM101 and Staphylococcus aureus BHI, and the yeast Saccharomyces cerevisiae strains BY4741 (MAT a his3Δ1 leu2Δ0 met15Δ0 ura3Δ0 (EUROSCARF)) carrying YEplac195 (from EUROSCARF) or YEPlac195-PDR5 (provided by Ayse Banu Demir, Izmir University of Economics, Turkey) plasmids.
(§3) Bacterial strains were usually maintained and grown in an LB medium (0.5% (w/v) yeast extract, 1% (w/v) bactotryptone, and 1% (w/v) NaCl) at 37 °C. For MIC (minimal inhibitory concentration) and MMC (minimal microbicidal concentration) assays, and for the determination of synergies, overnight growth was carried out in 2% (w/v) bactopeptone (BP), and then the cultures were diluted and incubated for several hours in 2% (w/v) BP for ensuring logarithmic growth. Yeast strains were grown in an SC-ura medium (0.17% (w/v) yeast nitrogen base without amino acids and ammonium sulphate, 0.2% (w/v) drop-out without uracil, 0.5% (w/v) (NH4)2SO4, and 2% (w/v) glucose) at 30 °C. Liquid cultures were incubated with shaking (200 rpm). Solid media also contained 2% (w/v) agar.
(§4) For the analysis of the antimicrobial activity, the strategies and indications of Cushnie et al. were considered. The standardised method of microdilution in a culture medium was followed to determine the MIC [55]. In bacterial strains, serial dilutions of the compounds to be tested and the control antibiotics were prepared in phosphate buffer (20 mM, pH 7.4, 0.5 mL) and were mixed with a suspension of bacterial cells in a logarithmic growth phase (in 1% BP, 0.5 mL). The final OD600 of the whole solutions were 0.004 and 0.008 for E. coli and S. aureus cultures, respectively. After 20 h of incubation at 37 °C with shaking, the MIC was determined as the lowest concentration of each compound in which no visible bacterial growth was observed.

Assay [5] has as its system Yeast (S. cerevisiae strains). The experiment in a line: MIC, yeast (strain not specified). The settings on record: for MIC: Saccharomyces cerevisiae, read-out: MIC Yeast. Type of assay: cell-based, Saccharomyces cerevisiae. On the procedure:
The determination of the MIC for yeast strains was carried out following a similar procedure to that of the polyamines and antifungal reference agents: Serial dilutions of each one in phosphate buffer (20 mM, pH 7.4, 0.5 mL) were prepared and mixed with a suspension of yeast cells (OD600 0.04 in SC-ura 2X (VWR, Atlanta, GA, USA), 0.5 mL). […] Experiments were carried out at least three times in all cases.

The subject of assay [6] is Escherichia coli JM101. The experiment in a line: MIC, microdilution in culture medium, E. coli. Type of assay: cell-based. To be noted: 20 h, 37 °C, average of at least three experiments; for MIC: Escherichia coli, JM101, read-out: MIC, Bacteria, E. coli JM101.
Description: as §2, §3, §4

Setting [7] is: yeast strain not specified (Tables 5 and 10).

Converted amounts (≈) assume the structure as drawn. Like-named read-outs stand apart in the source and are kept apart here. Marks after values point to notes of the source that are not given here.

As for `c1cc2nc(c1)CNCCN(CCNCc1ccc3c(c1)OCO3)CCNC2` [Compound 5a, 2-(3,6,9-triaza-1(2,6)-pyridinacyclodecaphane-6-yl)-N-(benzo[d][1,3]dioxol-5-ylmethyl)ethan-1-amine], the MBC in assay [1] amounted to 10 µg/mL (≈ 26.1 µM); in assay [3], 70 µg/mL (≈ 183 µM). Further, the “Synergy with Amphotericin B” value in assay [2] was “positive results and +”. Further, the “Synergy with Cycloheximide” value in assay [2] is “Sinergy and positive results and +”. Also, in assay [2], the “Synergy with Fluconazole” value was “Sinergy and synergic and +”. The MIC is 35 µg/mL in assay [4], 60 µg/mL (≈ 156 µM) in assay [5] (setting [7]) and 5 µg/mL in assay [6].

On to `Oc1ccccc1CNCCN1CCNCc2cccc(n2)CNCC1` [Compound 6a], for which the figures for the MBC in assay [1] and in assay [3] were 10 µg/mL (≈ 28.1 µM) and 160 µg/mL (≈ 450 µM), respectively. Besides, in assay [2], the “Synergy with Amphotericin B” value is “positive results and +”. Moreover, the “Synergy with Cycloheximide” value in assay [2] is “positive results and +”. In addition, in assay [2], the “Synergy with Fluconazole” value was “-”. The MIC in assay [4] came to 40 µg/mL; in assay [5] (setting [7]) it was 45 µg/mL (≈ 127 µM); in assay [6] it was 2.5 µg/mL.

On to `Oc1ccc(CNCCN2CCNCc3cccc(n3)CNCC2)cc1` [Compound 7a], for which the “Minimal bactericidal concentration (MBC), E. coli JM101” value in assay [1] was “Bacteriostatic”. Moreover, the figures for the MIC in assay [4], in assay [5] and in assay [6] were 135 µg/mL, 295 µg/mL (≈ 830 µM) and 13 µg/mL, respectively.

In the case of `c1cc2nc(c1)CNCCN(CCNCc1ccc3c(c1)CCO3)CCNC2` [Compound 8a, 2-(3,6,9-triaza-1(2,6)-pyridinacyclodecaphane-6-yl)-N-((2,3-dihydrobenzofuran-5-yl)methyl)ethan-1-amine], the MBC is 60 µg/mL (≈ 157 µM) in assay [1] and 400 µg/mL (≈ 1050 µM) in assay [3]. The MIC in assay [4] stood at 100 µg/mL; in assay [5] (setting [7]), 400 µg/mL (≈ 1050 µM); in assay [6], 15 µg/mL.

As to “N^1-(benzo[d][1,3]dioxol-5-ylmethyl)-N^3-(2-((2-((3-((benzo[d][1,3]dioxol-5-ylmethyl)amino)propyl)amino)ethyl)(2-((3-(((2,3-dihydrobenzofuran-6-yl)methyl)amino)propyl)amino)ethyl)amino)ethyl)propane-1,3-diamine [Compound 4a]”, the “Minimal bactericidal concentration (MBC), E. coli JM101” value in assay [1] is 10 ^a µg/mL. Further, in assay [2], the “Synergy with Amphotericin B” value is “positive results and +”; the “Synergy with Cycloheximide” value was “Sinergy and positive results and +”; the “Synergy with Fluconazole” value was “Sinergy and synergic and +”. For the same compound, the “Minimal bactericidal concentration (MBC), S. aureus BHI” value in assay [3] was 8 ^a µg/mL. Further, in assay [4], the “MIC, Bacteria, S. aureus BHI” value is reported as 4 µg/mL. Also, the “MIC Yeast” value in assay [5] (setting [7]) amounted to 150 µg/mL. Further, in assay [6], the “MIC, Bacteria, E. coli JM101” value was 5 µg/mL.
